What is called melting point is the temperature of the solid-liquid transition.

Read-outs that look alike come from different tables or passages of the source.

A short description of data set [1]: Platelet numbers, renal toxicity findings and deaths in the Meth A-bearing mice (Test Example 1). Type of data set: in vivo, mice (Balb/c). The note with it: intravenous, 17th day; for Platelet numbers: % of solvent-administered group. The protocol: (§1) Mouse fibrosarcoma Meth A was subcutaneously transplanted into mice (line name; Balb/c), and each compound dissolved in a mixed solvent of ethanol, Tween 80 and 5% glucose (5:5:90 (v/v)) was administered by intravenous injection after 6, 8 or 10 days (or only after 6 days) of the transplantation. Each animal was anatomized on the 17th day to examine tumor weight, platelet numbers and renal toxicity. Six mice were used in each group.
The number of platelets was expressed by (platelets of compound-administered group/platelets of solvent-administered group)×100.
The renal toxicity findings were expressed as “changed” when a change such as fading was found by macroscopic observation at the time of anatomy or when a change such as precipitation of hyaline droplet substance in the renal tubular cell cytoplasm was found by a histological inspection.

The nature of data set [2]: Blood concentration and oral BA in monkey after single intravenous or oral dose (Test Example 4). It is filed as in vivo, female Macaca irus (monkey). The following applies: for Oral BA: ratio of oral AUC to intravenous AUC; for AUC(0-inf): female, Macaca irus (cynomolgus), blood. The protocol: The AUCO0-∞ means area under the blood concentration time curve of a drug concentration in blood during a period of from the time of administration (0 h) to the infinite time and it can be calculated in accordance with the method (trapezoidal rule) disclosed in Kiyoshi Yamaoka and Yusuke Tanigawara, Yakubutsu Sokudoron Nyumon (A Guide to Pharmacokinetics), pages 116-117. In addition, ratio of the AUC at the time of oral administration to the AUC at the time of intravenous administration was calculated as oral BA.
Animal: female Macaca irus, Administration method (compound of formula (B)) [intravenous] EtOH:Tween 80:5% glucose=5:5:90, [oral] […] 10% β-CyD-SBE7 (pH=3.5 in physiological saline), [oral] 40 mM acetate buffer (pH 4.0)

The subject of data set [3] is B16 Melanoma BL6. Nature of the data set: Antitumor test, B16 Melanoma BL6 subcutaneously transplanted into mice (Test Example 2). It is filed as in vivo, mice (C57BL/6). The following applies: 4 days after transplantation, tumor weight after 15 days. The protocol: B16 Melanoma BL6 was subcutaneously transplanted into mice (C57BL/6), and each compound was administered 4 days thereafter. […] In the case of oral administration, each compound was administered by suspending it in a 0.5% carboxymethylcellulose sodium aqueous solution. Each animal was anatomized after 15 days of the transplantation to measure tumor weight. Antitumor effect was calculated by the following formula.
(§2) {1−(tumor weight of compound-administered group/tumor weight of solvent-administered group)}×100
Six mice were used in each group.

Data set [4] deals with Mouse fibrosarcoma Meth A. Kind of data set: Antitumor test, mouse fibrosarcoma Meth A subcutaneously transplanted into mice (Test Example 1). Type of data set: in vivo, mice (Balb/c). The note with it: intravenous, tumor weight on 17th day. The protocol:
as §1
Antitumor effect was calculated by the following formula.
as §2

Data set [5] concerns human liver microsome. Kind of data set: Metabolism in Human Microsome P450 (Test Example 3).
Protocol: Each of the samples to be evaluated was dissolved in acetonitrile/water (1:1, v/v) to a concentration of 500 μM, and the solution was mixed with human liver microsome (Xenotech LLC) and other components such as various coenzymes and buffer solution and allowed to generate the metabolic reaction at 37° C. The reaction solution was composed of phosphate buffer (0.076 M; final concentration, the same shall apply hereinafter), sample to be evaluated (10 μM), human liver microsome (1 mg/ml), glucose 6-phosphate (10 mM), glucose-6-phosphate dehydrogenase (1 unit/ml), magnesium chloride (4 mM) and reduced nicotinamide adenine dinucleotide phosphate (β-NADPH, 1 mM), and 500 μl of the solution was used in one reaction. In this case, the reaction solution excluding β-NADPH was incubated in advance at 37° C. for 2 minutes and then the reaction was started by adding a β-NADPH aqueous solution (50 mM, 10 μl).
The reaction was terminated by adding 1 ml of ice-cooled acetonitrile 1, 2 or 5 minutes after commencement of the reaction.
In this connection, a sample of 0 minute after commencement of the reaction was prepared by adding water instead of the β-NADPH aqueous solution and immediately adding 1 ml of acetonitrile. A 100 μl portion of an internal standard substance was added to each of these samples, and the reaction solution was centrifuged for 15 minutes. The resulting supernatant was injected into a high performance liquid chromatography (HPLC) to measure concentration of the sample to be evaluated. […] By plotting the amount of formed metabolite against the reaction time and carrying out linear regression by the method of least squares, amount of the metabolite formed per 1 minute (metabolic rate constant: k (nmol/min/mg protein)) was calculated from the slope.
From the thus obtained metabolic rate constant k (nmol/min/mg protein), the liver-specific clearance (CLint) was calculated by the following formula. […]
Theoretical bioavailability (F) value was calculated from the CLh by the following formula.

Take `CC(=O)O[C@@]12CO[C@@H]1CC[C@@]1(C)[C@@H]3O[C@H](CN4CCOCC4)O[C@@H]3C3=C(C)[C@@H](OC(=O)[C@H](O)[C@@H](NC(=O)OC(C)(C)C)c4ccccn4)C[C@@](O)([C@@H](OC(=O)c4ccccc4)[C@@H]12)C3(C)C` [Compound (B)]: the results for the Platelet numbers in data set [1] (22.5 mg/kg × 1) and in data set [1] (32.4 mg/kg × 1) were 124% and 142%, respectively. Besides, in data set [1] (32.4 mg/kg × 1), the Renal toxicity findings result is reported as “no change”. Moreover, in data set [2] (1.6 mg/kg), the “Oral BA” value is given as 7.1%. Also, the AUC(0-inf) in data set [2] (single dose 1.6 mg/kg intravenous, one monkey, read-out: AUC0-∞ Intravenous) worked out at 394 ng·h/mL; in data set [2] (single dose 1.6 mg/kg oral, one monkey (different individual), read-out: AUC0-∞ Oral) it was 28.1 ng·h/mL. The “Oral absorption property in monkey (in words)” value in data set [2] (in vivo, po) is on record as “low”. Also, the Antitumor effect is given as 90.5% in data set [3] (13.3 mg/kg oral); 97.4% in data set [3] (20.0 mg/kg oral); 69% in data set [4] (22.5 mg/kg × 1 (day 6)); 83% in data set [4] (32.4 mg/kg × 1 (day 6), three deaths among 6 animals).

As for `CC(=O)O[C@@]12CO[C@@H]1CC[C@@]1(C)[C@@H]3O[C@H](CN(C)C)O[C@@H]3C3=C(C)[C@@H](OC(=O)[C@H](O)[C@@H](NC(=O)OC(C)(C)C)c4ncccc4F)C[C@@](O)([C@@H](OC(=O)c4ccccc4)[C@@H]12)C3(C)C` [Example 7, (1S,2S,3R,4S,5R,8R,9S,10R,13S)-4-Acetoxy-2-benzoyloxy-9,10-[(1S)-2-(dimethylamino)ethylidenedioxy]-5,20-epoxy-1-hydroxytax-11-en-13-yl (2R,3S)-3-(tert-butoxycarbonylamino)-3-(3-fluoro-2-pyridyl)-2-hydroxypropionate], the “Oral BA” value in data set [2] (1.8 mg/kg) is recorded as 62.4%. Moreover, the AUC(0-inf) in data set [2] (single dose 1.8 mg/kg intravenous, average of 4 monkeys, read-out: AUC0-∞ Intravenous) was 994 ng·h/mL; in data set [2] (single dose 1.8 mg/kg oral, average of 4 monkeys, read-out: AUC0-∞ Oral), 621 ng·h/mL. Besides, the Antitumor effect in data set [3] (7.9 mg/kg intravenous) stood at 91.5%; in data set [3] (7.9 mg/kg oral), 91.5%; in data set [3] (11.9 mg/kg intravenous), 95.5%; in data set [3] (11.9 mg/kg oral), 97.4%.

The molecule `COc1ccc([C@H](NC(=O)OC(C)(C)C)[C@@H](O)C(=O)O[C@H]2C[C@@]3(O)[C@@H](OC(=O)c4ccccc4)[C@H]4[C@@](C)(CC[C@H]5OC[C@]54OC(C)=O)[C@@H]4O[C@H](CN5CCOCC5)O[C@@H]4C(=C2C)C3(C)C)nc1` [Example 1, (1S,2S,3R,4S,5R,8R,9S,10R,13S)-4-Acetoxy-2-benzoyloxy-5,20-epoxy-1-hydroxy-9,10-[(1S)-2-(morpholino)ethylidenedioxy]tax-11-en-13-yl (2R,3S)-3-(tert-butoxycarbonylamino)-2-hydroxy-3-(5-methoxy-2-pyridyl)propionate] yielded a melting point of 160 to 161 °C.

Consider “(1S,2S,3R,4S,5R,8R,9S,10R,13S)-4-Acetoxy-2-benzoyloxy-5,20-epoxy-1-hydroxy-9,10-[(1S)-2-(morpholino)ethylidenedioxy]tax-11-en-13-yl (2R,3S)-3-(tert-butoxycarbonylamino)-3-(5-fluoro-2-pyridyl)-2-hydroxypropionate [Example 3]”, for which, in data set [5] (calculated from CLh (Well-stirred model, Q 20 ml/min/kg)), the “Theoretical F value of unchanged compound” value is reported as 0.92. In data set [5] (human liver microsome 1 mg/ml, sample 10 μM, 37° C., 0-5 minutes), this molecule had a Metabolic rate constant of 0.02 nmol/min/mg protein. The Clint in data set [5] (liver-specific clearance calculated from the metabolic rate constant) was 1.8 mL/min/kg.

For the molecule `CC(=O)O[C@@]12CO[C@@H]1C[C@H](O)[C@@]1(C)C(=O)[C@H](O)C3=C(C)[C@@H](OC(=O)[C@H](O)[C@@H](NC(=O)OC(C)(C)C)c4ccccc4)C[C@@](O)([C@@H](OC(=O)c4ccccc4)[C@H]21)C3(C)C` [(A), taxotere], the Antitumor effect in data set [3] (180.0 mg/kg intravenous) came to 95.7%; in data set [3] (600.0 mg/kg oral), 6.2%.

Source of the values: patent publication US6677456B2, “Pentacyclic taxan compound” (Daiichi Pharmaceutical Co., Ltd., priority 1999, dated 2004).
